What was measured:
MCF7 = test: Cytotoxicity against human MCF7 cells after 72 hrs by MTT assay; format: functional, cell-based
A549 [1] = test: Cytotoxicity against human A549 cells after 72 hrs by MTT assay; format: functional, cell-based
HeLa = test: Cytotoxicity against human HeLa cells after 72 hrs by MTT assay; format: functional, cell-based
A549 [2] = test: Induction of cell cycle arrest in human A549 cells assessed as accumulation at S phase at 5 uM incubated for 24 hrs by propidium iodide staining based flow cytometry (reference value: 27.97 %); format: functional
A549 [3] = test: Induction of cell cycle arrest in human A549 cells assessed as accumulation at G2 phase at 5 uM incubated for 24 hrs by propidium iodide staining based flow cytometry (reference value: 7.56 %); format: functional
A549 [4] = test: Cytotoxicity against human A549 cells assessed as inhibition rate at 100 uM after 72 hrs by MTT assay relative to control; format: functional
A549 [5] = test: Cytotoxicity against human A549 cells assessed as inhibition rate at 33.33 uM after 72 hrs by MTT assay relative to control; format: functional
A549 [6] = test: Induction of cell cycle arrest in human A549 cells assessed as accumulation at G0/G1 phase at 5 uM incubated for 24 hrs by propidium iodide staining based flow cytometry (reference value: 64.47 %); format: functional
A549 [7] = test: Cytotoxicity against human A549 cells assessed as inhibition rate at 3.704 uM after 72 hrs by MTT assay relative to control; format: functional
A549 [8] = test: Cytotoxicity against human A549 cells assessed as inhibition rate at 11.11 uM after 72 hrs by MTT assay relative to control; format: functional
A549 [9] = test: Cytotoxicity against human A549 cells assessed as inhibition rate at 1.234 uM after 72 hrs by MTT assay relative to control; format: functional
A549 [10] = test: Cytotoxicity against human A549 cells assessed as inhibition rate at 0.411 uM after 72 hrs by MTT assay relative to control; format: functional
A549 [11] = test: Cytotoxicity against human A549 cells assessed as inhibition rate at 0.137 uM after 72 hrs by MTT assay relative to control; format: functional
[12] = molecular target: Hepatocyte growth factor receptor (Homo sapiens, UniProt P08581); test: Inhibition of c-Met (unknown origin) by mobility shift assay
Sequence of Hepatocyte growth factor receptor (P08581 whole entry): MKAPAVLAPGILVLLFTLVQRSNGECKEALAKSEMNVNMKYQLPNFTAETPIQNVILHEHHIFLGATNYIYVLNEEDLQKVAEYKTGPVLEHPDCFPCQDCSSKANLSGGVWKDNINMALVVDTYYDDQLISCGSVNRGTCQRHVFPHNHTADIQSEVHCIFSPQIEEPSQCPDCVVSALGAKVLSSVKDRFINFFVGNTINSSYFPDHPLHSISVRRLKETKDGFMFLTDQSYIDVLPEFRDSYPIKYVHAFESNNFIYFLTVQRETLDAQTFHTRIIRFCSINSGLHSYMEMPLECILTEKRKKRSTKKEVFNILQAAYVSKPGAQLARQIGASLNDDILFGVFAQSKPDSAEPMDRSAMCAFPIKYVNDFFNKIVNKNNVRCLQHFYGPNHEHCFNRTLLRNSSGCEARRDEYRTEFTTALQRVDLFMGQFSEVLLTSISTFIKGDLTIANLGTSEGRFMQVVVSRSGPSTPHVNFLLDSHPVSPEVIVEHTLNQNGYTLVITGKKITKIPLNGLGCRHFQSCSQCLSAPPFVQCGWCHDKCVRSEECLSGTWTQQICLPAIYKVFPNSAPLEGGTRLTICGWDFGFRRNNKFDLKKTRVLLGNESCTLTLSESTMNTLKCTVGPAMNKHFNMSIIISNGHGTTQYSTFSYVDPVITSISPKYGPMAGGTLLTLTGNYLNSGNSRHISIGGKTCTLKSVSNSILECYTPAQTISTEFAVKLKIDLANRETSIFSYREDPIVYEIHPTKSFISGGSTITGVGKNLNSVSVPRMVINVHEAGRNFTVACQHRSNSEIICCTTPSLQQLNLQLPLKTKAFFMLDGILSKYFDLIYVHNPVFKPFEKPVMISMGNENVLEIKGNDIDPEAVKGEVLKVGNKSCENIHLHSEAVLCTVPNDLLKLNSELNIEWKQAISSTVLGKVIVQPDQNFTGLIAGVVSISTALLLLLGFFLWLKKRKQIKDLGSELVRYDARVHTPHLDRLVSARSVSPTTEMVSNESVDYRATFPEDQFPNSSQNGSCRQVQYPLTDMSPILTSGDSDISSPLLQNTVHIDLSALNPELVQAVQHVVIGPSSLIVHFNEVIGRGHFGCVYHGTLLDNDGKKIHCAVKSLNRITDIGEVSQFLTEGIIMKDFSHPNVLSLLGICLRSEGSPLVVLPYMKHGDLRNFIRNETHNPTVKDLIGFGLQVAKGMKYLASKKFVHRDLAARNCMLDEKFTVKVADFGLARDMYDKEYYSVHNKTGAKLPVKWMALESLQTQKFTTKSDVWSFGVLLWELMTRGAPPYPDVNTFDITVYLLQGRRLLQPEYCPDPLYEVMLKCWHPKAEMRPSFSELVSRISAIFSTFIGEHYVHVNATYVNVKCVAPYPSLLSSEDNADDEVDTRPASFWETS

A549 [13] = test: Cytotoxicity against human A549 cells assessed as reduction in cell survival after 72 hrs by MTT assay; format: functional, cell-based; details: dose 0.137-100 µM
[14] = Homo sapiens, A549, 72 h, read-out: IC50
[15] = Homo sapiens, MCF7, 72 h, read-out: IC50

In the case of Cn1ccc2c(Oc3ccc(NC(=O)c4cc5cccnc5n(-c5ccc(C(F)(F)F)c(Cl)c5)c4=O)cc3F)ncnc21, the IC50 (MCF7; mcf7) is reported as “Not Active”, the IC50 (A549 [1]; [14]) is reported as 320 µM and the IC50 (HeLa) is reported as 156 µM.

Cn1ccc2c(Oc3ccc(NC(=O)c4cc5cccnc5n(-c5ccccc5)c4=O)cc3)ncnc21 was tested, and the IC50 (MCF7; [15]) was 88.4 µM, the IC50 (A549 [1]; [14]) was 66.2 µM and the IC50 (HeLa) was 59.8 µM.

O=C(Nc1ccc(Oc2ncnc3[nH]ccc23)c(F)c1)c1cc2cccnc2n(-c2ccc(C(F)(F)F)cc2Cl)c1=O showed an IC50 (MCF7; [15]) of 214 µM, an IC50 (A549 [1]; [14]) of 283 µM and an IC50 (HeLa) of 96.8 µM.

With CN1CCN(C2CCN(C(=O)Nc3cc(Oc4ccc(NC(=O)C5(C(=O)Nc6ccc(F)cc6)CC5)c(F)c4)ccn3)CC2)CC1 [GOLVATINIB] the Activity (A549 [2]) was 19.82%, the Activity (A549 [3]) was 6.53% and the inhibition at 100 µM (A549 [4]) was 85.1%. The inhibition at 33.33 µM (A549 [5]) was 76.5%, the Activity (A549 [6]) was 73.65% and the inhibition at 3.704 µM (A549 [7]) was 35.3%. It also gave an inhibition at 11.11 µM (A549 [8]) of 47.5%, an inhibition at 1.234 µM (A549 [9]) of 21.4% and an inhibition at 0.411 µM (A549 [10]) of 17.2%. It also gave an inhibition at 0.137 µM (A549 [11]) of 13.7%, an IC50 (MCF7; [15]) of 15.4 µM and an IC50 (A549 [1]; [14]) of 7.7 µM. For the same compound, the IC50 (HeLa) was 4.23 µM.

In the case of Cn1ccc2c(Oc3ccc(NC(=O)c4cc5cccnc5n(-c5ccc(F)cc5)c4=O)cc3F)ncnc21, the IC50 [12] is reported as 0.701 µM, the IC50 (MCF7; [15]) is reported as 11.9 µM and the IC50 (A549 [1]; [14]) is reported as 7.32 µM. The IC50 (HeLa) was 4.25 µM.

For Cn1ccc2c(Oc3ccc(NC(=O)c4cc5cccnc5n(-c5ccc(Cl)cc5)c4=O)cc3)ncnc21, the IC50 (MCF7; [15]) was 95 µM, the IC50 (A549 [1]; [14]) was 75.5 µM and the IC50 (HeLa) was 49.9 µM.

For Cn1ccc2c(Oc3ccc(NC(=O)c4cc5cccnc5n(-c5ccc(C(F)(F)F)cc5Cl)c4=O)cc3)ncnc21, the IC50 (MCF7; mcf7) was “Not Active”, the IC50 (A549 [1]; [14]) was 364 µM and the IC50 (HeLa) was 174 µM.

Cn1ccc2c(Oc3ccc(NC(=O)c4cc5cccnc5n(-c5ccccc5)c4=O)cc3F)ncnc21 was tested, and the IC50 (MCF7; [15]) was 73.4 µM, the IC50 (A549 [1]; [14]) was 63.2 µM and the IC50 (HeLa) was 51.8 µM.

With Cn1ccc2c(Oc3ccc(NC(=O)c4cc5cccnc5n(-c5ccc(Cl)cc5)c4=O)cc3F)ncnc21 the IC50 [12] was 3.79 µM, the IC50 (MCF7; [15]) was 75 µM and the IC50 (A549 [1]; [14]) was 55.5 µM. For the same compound, the IC50 (HeLa) was 43.9 µM.

Compound O=C(Nc1ccc(Oc2ncnc3[nH]ccc23)c(F)c1)c1cc2cccnc2n(-c2ccc(Br)cc2F)c1=O has an IC50 (MCF7; [15]) of 102 µM, an IC50 (A549 [1]; [14]) of 218 µM and an IC50 (HeLa) of 87.8 µM.

Cn1ccc2c(Oc3ccc(NC(=O)c4cc5cccnc5n(-c5ccc(Br)cc5)c4=O)cc3F)ncnc21 was tested, and the IC50 (MCF7; [15]) was 59.4 µM, the IC50 (A549 [1]; [14]) was 42.2 µM and the IC50 (HeLa) was 33.8 µM.

Work on O=C(Nc1ccc(Oc2ncnc3[nH]ccc23)c(F)c1)c1cc2cccnc2n(-c2ccc(Cl)cc2)c1=O yielded an IC50 [12] of 1.18 µM, an IC50 (MCF7; [15]) of 45 µM and an IC50 (A549 [1]; [14]) of 35.5 µM. For the same compound, the IC50 (HeLa) was 23.9 µM.

O=C(Nc1ccc(Oc2ncnc3[nH]ccc23)c(F)c1)c1cc2cccnc2n(-c2ccc(Br)cc2)c1=O showed an IC50 (MCF7; [15]) of 27 µM, an IC50 (A549 [1]; [14]) of 27.3 µM and an IC50 (HeLa) of 19.9 µM.

Compound Cn1ccc2c(Oc3ccc(NC(=O)c4cc5cccnc5n(-c5ccc(Br)cc5)c4=O)cc3)ncnc21 has an IC50 (MCF7; [15]) of 79.4 µM, an IC50 (A549 [1]; [14]) of 52.2 µM and an IC50 (HeLa) of 43.8 µM.

O=C(Nc1ccc(Oc2ncnc3[nH]ccc23)c(F)c1)c1cc2cccnc2n(-c2ccccc2)c1=O was tested, and the IC50 (MCF7; [15]) was 45 µM, the IC50 (A549 [1]; [14]) was 45.5 µM and the IC50 (HeLa) was 36.9 µM.

In the case of O=C(Nc1ccc(Oc2ncnc3[nH]ccc23)c(F)c1)c1cc2cccnc2n(-c2ccc(F)cc2)c1=O, the Activity (A549 [13]) is reported as “Dose-dependent effect”, the Activity (A549 [2]) is reported as 21.11% and the Activity (A549 [3]) is reported as 5.43%. For the same compound, the inhibition at 100 µM (A549 [4]) was 90.5%, the inhibition at 33.33 µM (A549 [5]) was 80.6% and the Activity (A549 [6]) was 73.46%. For the same compound, the inhibition at 3.704 µM (A549 [7]) was 42.3%, the inhibition at 11.11 µM (A549 [8]) was 54.5% and the inhibition at 1.234 µM (A549 [9]) was 23.4%. The inhibition at 0.411 µM (A549 [10]) was 18.1%, the IC50 [12] was 0.612 µM and the inhibition at 0.137 µM (A549 [11]) was 12.7%. For the same compound, the IC50 (MCF7; [15]) was 9.23 µM, the IC50 (A549 [1]; [14]) was 5.29 µM and the IC50 (HeLa) was 3.72 µM.

With Cn1ccc2c(Oc3ccc(NC(=O)c4cc5cccnc5n(-c5ccc(C(F)(F)F)cc5Cl)c4=O)cc3F)ncnc21 the IC50 (MCF7; mcf7) was “Not Active”, the IC50 (A549 [1]; a549) was “Not Active” and the IC50 (HeLa) was 170 µM.

In the case of COc1ccc(-n2c(=O)c(C(=O)Nc3ccc(Oc4ncnc5c4ccn5C)cc3)cc3cccnc32)cc1, the IC50 (MCF7; [15]) is reported as 105 µM, the IC50 (A549 [1]; [14]) is reported as 83.2 µM and the IC50 (HeLa) is reported as 65.8 µM.

For Cn1ccc2c(Oc3ccc(NC(=O)c4cc5cccnc5n(-c5ccc(C(F)(F)F)c(Cl)c5)c4=O)cc3)ncnc21, the IC50 (MCF7; mcf7) was “Not Active”, the IC50 (A549 [1]; a549) was “Not Active” and the IC50 (HeLa) was 289 µM.

— ChEMBL document CHEMBL4673365, “Design, synthesis and biological evaluation of novel 4-(pyrrolo[2,3-d]pyrimidine-4-yloxy)benzamide derivatives as potential antitumor agents” (Bioorg Med Chem Lett, 2021)
